Tests used:
Type in all cases: cell-based
Conditions in all cases: after 10, 20, 40 and 60 minutes at all dilutions 1:100, 1:200, 1:400, 1:800
Staphylococcus aereus = experiment: Antimicrobial testing by agar dilution, St. Aereus
Method: (§1) The antimicrobial properties of the 6-[4,4-bis(4-bromophenyl)-2,5-dioxoimidazolidin-1-yl]hexanoic acid were studied by the method of agar dilution. Test solutions of each compound was prepared in concentration of 1% using dimethylformamide as a solvent then they are diluted in physiological solution to obtain the final experimental dilutions 1:100, 1:200, 1:400, 1:800. The effect of these substances are compared with furacillin in a controllable study. The testing microbes used were gram positive bacteria Staphylococcus aereus, gram negative bacteria Escherichia Coli, Pseudomonas aeruginosa and Candida albicans fungi were taken. The experiments used for this survey were meat-pentonlu agar (EPA) for cultivation of bacteria and Saburo environment for fungi. Each experiment used 1 ml of test solution on each plate 500 min. Add 2 drops of emulsified with microbes feel. All experimental samples were taken from the agar after 10, 20, 40, 60 minutes in the environment on the basis of Patrk planted. Bacteria were cultivated at a temperature of 37° C. for 1 day and the mushroom was kept in a thermostat for 2 hours at a temperature of 28° C. in the. Then results were checked.

Escherichia Coli = experiment: Antimicrobial testing by agar dilution, E. Coli
Method: as §1

Pseudomonas aeruginosa = experiment: Antimicrobial testing by agar dilution, Ps. aeruginosa
Method: as §1

Candida albicans = experiment: Antimicrobial testing by agar dilution, Candida albicans
Method: as §1

O=C(O)CCCCCN1C(=O)NC(c2ccc(Br)cc2)(c2ccc(Br)cc2)C1=O [6-[4,4-bis(4-bromophenyl)-2,5-dioxoimidazolidin-1-yl]hexanoic acid]
higher inhibition activity: inhibition activity, Staphylococcus aereus (Staphylococcus aereus) | inhibition activity, Escherichia Coli (Escherichia Coli) | inhibition activity, Pseudomonas aeruginosa (Pseudomonas aeruginosa) | inhibition activity, Candida albicans (Candida albicans)

Reference: patent US12180167B1, “6-[4,4-bis(4-bromophenyl)-2,5-dioxoimidazolidin-1-yl]hexanoic acid as an antimicrobial compound” (KING FAISAL UNIVERSITY, priority 2024, dated 2024)
